Data as given in US6235973A, “Expression of magainin and PGL classes of antimicrobial peptide genes in plants, and their use in creating resistance to multiple plant pathogens” (Sanford Scientific, Inc., priority 1998, dated 2001).
Values joined by “and” are separate entries in the source; they are usually repeats but may differ in a detail not shown here. Equal entries are not always repeated. Residues, ends and D or L forms follow the SMILES beside them.

Tests used:
[1] = test system: Rhizoctonia solani R2; conditions: Rhizoctonia solani R2, mycelial fragments
[2] = test system: Pseudomonas syringae and Erwinia carotovora; conditions: for activity against log phase-grown Pseudomomas and Erwinia: compared with MSI-99 and D5-C
[3] = test system: Phytophthora parasitica (vinca); assay: In vitro MIC, microtiter serial dilution; type: cell-based
[4] = test system: Botrytis cinerea; assay: Anti-Botrytis leaf disk bioassay, transgenic poinsettia; conditions: control = 100
[5] = test system: Thielaviopsis basicola; assay: In vitro MIC, microtiter serial dilution; type: cell-based
[6] = test system: Fusarium solani; assay: In vitro MIC, microtiter serial dilution; type: cell-based
[7] = test system: Erwinia carotovora; assay: In vitro MIC, microtiter serial dilution; type: cell-based; conditions: inhibits all growth after 24 hrs
[8] = test system: Botrytis cinerea; assay: Anti-Botrytis leaf disk bioassay, transgenic petunia; conditions: control = 100
[9] = test system: Phytophthora parasitica (petunia); assay: In vitro MIC, microtiter serial dilution; type: cell-based; conditions: germinated
[10] = test system: Botrytis cinerea; assay: In vitro MIC, microtiter serial dilution; type: cell-based
[11] = test system: Pseudomonas syringae; assay: In vitro MIC, microtiter serial dilution; type: cell-based; conditions: inhibits all growth after 24 hrs
[12] = test system: Fusarium graminearum; type: cell-based; conditions: non-germinated
[13] = plasmid 144, three distinct plants
[14] = plasmid 143, three distinct plants

SMILES	Minimum Inhibitory Concentration [1] [µg/mL]	MIC [2] [µg/mL]	Minimum Inhibitory Concentration ([3]; germinated) [µg/mL]	Minimum Inhibitory Concentration ([3]; non-germinated) [µg/mL]	Minimum Inhibitory Concentration ([5]; germinated) [µg/mL]	Minimum Inhibitory Concentration ([5]; non-germinated) [µg/mL]	Minimum Inhibitory Concentration ([6]; germinated) [µg/mL]	Minimum Inhibitory Concentration ([6]; non-germinated) [µg/mL]	Minimum Inhibitory Concentration [7] [µg/mL]	Minimum Inhibitory Concentration [9] [µg/mL]	Minimum Inhibitory Concentration ([10]; germinated) [µg/mL]	Minimum Inhibitory Concentration ([10]; non-germinated) [µg/mL]	Minimum Inhibitory Concentration [11] [µg/mL]	Minimum Inhibitory Concentration [12] [µg/mL]	activity against log phase-grown Pseudomomas and Erwinia [2]	also measured
CC[C@H](C)[C@H](NC(=O)[C@H](CCCCN)NC(=O)[C@H](CCCNC(=N)N)NC(=O)[C@H](C)NC(=O)[C@H](CC(C)C)NC(=O)[C@H](CCCCN)NC(=O)[C@H](CCCCN)NC(=O)[C@H](CC(C)C)NC(=O)[C@H](CCCNC(=N)N)NC(=O)[C@H](CCCNC(=N)N)NC(=O)CNC(=O)[C@@H](NC(=O)[C@H](CCCNC(=N)N)NC(=O)[C@H](CCCCN)NC(=O)[C@@H](NC(=O)[C@H](C)NC(=O)[C@H](CCCNC(=N)N)NC(=O)[C@H](CCCCN)NC(=O)[C@H](CCCNC(=N)N)NC(=O)[C@H](CCCCN)NC(=O)[C@@H](N)CCSC)C(C)C)C(C)C)C(=O)N[C@@H](C)C(=O)N[C@@H](CCCNC(=N)N)C(=O)N[C@@H](CC(C)C)C(=O)NCC(=O)N[C@H](C(=O)N[C@@H](C)C(=O)N[C@@H](Cc1ccccc1)C(=O)O)C(C)C [D5-C, reference compound] (H-MKRKRAVKRVGRRLKKLARKIARLGVAF-OH)	32 to 64	< 2	16 to 32	16	16	16	4	4	2	16 to 32	–	–	–	–	–	Disease Incidence, percent leaf disks infected relative to untransformed control [4, 13]: 62% and 68% and 72%; Disease Incidence, percent leaf disks infected relative to untransformed control ([4]; plasmid 165, three distinct plants): 42% and 60% and 67%; Disease Incidence, percent leaf disks infected relative to untransformed control [8, 13]: 31% and 41% and 50%; Disease Incidence, percent leaf disks infected relative to untransformed control ([8]; plasmid 148, three distinct plants): 52% and 70% and 75%
CC[C@H](C)[C@H](NC(=O)CNC(=O)[C@@H](N)CCSC)C(=O)NCC(=O)N[C@@H](CCCCN)C(=O)N[C@@H](Cc1ccccc1)C(=O)N[C@@H](CC(C)C)C(=O)N[C@@H](CCCCN)C(=O)N[C@@H](CO)C(=O)N[C@@H](C)C(=O)N[C@@H](CCCCN)C(=O)N[C@@H](CCCCN)C(=O)N[C@@H](Cc1ccccc1)C(=O)NCC(=O)N[C@@H](CCCCN)C(=O)N[C@@H](C)C(=O)N[C@@H](Cc1ccccc1)C(=O)N[C@H](C(=O)N[C@@H](CCCCN)C(=O)N[C@H](C(=O)N[C@@H](CC(C)C)C(=O)N[C@@H](CC(N)=O)C(=O)N[C@@H](CO)C(=O)O)[C@@H](C)CC)C(C)C [MSI-99] (H-MGIGKFLKSAKKFGKAFVKILNS-OH; N-terminus and C-terminus assumed)	16	< 2	16 to 32	64	4	4	4	2	1	8 to 16	8	8	1	4	–	Disease Incidence, percent leaf disks infected relative to untransformed control [4, 14]: 48% and 61% and 69%; Disease Incidence, percent leaf disks infected relative to untransformed control ([4]; plasmid 168, three distinct plants): 31% and 40% and 52%; Disease Incidence, percent leaf disks infected relative to untransformed control [8, 14]: 26% and 30% and 31%; Disease Incidence, percent leaf disks infected relative to untransformed control ([8]; plasmid 147, three distinct plants): 36% and 60% and 70%
CC[C@H](C)[C@H](NC(=O)CNC(=O)[C@@H](N)CCSC)C(=O)NCC(=O)N[C@@H](CCCCN)C(=O)N[C@@H](Cc1ccccc1)C(=O)N[C@@H](CC(C)C)C(=O)N[C@@H](Cc1c[nH]cn1)C(=O)N[C@@H](CO)C(=O)N[C@@H](C)C(=O)N[C@@H](CCCCN)C(=O)N[C@@H](CCCCN)C(=O)N[C@@H](Cc1ccccc1)C(=O)NCC(=O)N[C@@H](CCCCN)C(=O)N[C@@H](C)C(=O)N[C@@H](Cc1ccccc1)C(=O)N[C@H](C(=O)NCC(=O)N[C@@H](CCC(=O)O)C(=O)N[C@H](C(=O)N[C@@H](CCSC)C(=O)N[C@@H](CC(N)=O)C(=O)N[C@@H](CO)C(=O)O)[C@@H](C)CC)C(C)C [Mag 2] (H-MGIGKFLHSAKKFGKAFVGEIMNS-OH; N-terminus and C-terminus assumed)	16 to 32	–	> 128	> 256	4	8	4 to 8	4	32	> 128	8	8 to 16	32	4	significantly less active	–
CC[C@H](C)[C@H](NC(=O)[C@H](C)NC(=O)CNC(=O)[C@H](C)NC(=O)[C@H](CCCCN)NC(=O)[C@H](CO)NC(=O)[C@H](C)NC(=O)[C@H](CCSC)NC(=O)CN)C(=O)N[C@@H](C)C(=O)NCC(=O)N[C@@H](CCCCN)C(=O)N[C@H](C(=O)N[C@@H](C)C(=O)N[C@@H](CCCCN)C(=O)N[C@H](C(=O)N[C@@H](C)C(=O)N[C@@H](CC(C)C)C(=O)N[C@@H](CCCCN)C(=O)N[C@@H](C)C(=O)N[C@@H](CC(C)C)C(N)=O)C(C)C)[C@@H](C)CC [PGL] (H-GMASKAGAIAGKIAKVALKAL-NH2)	16 to 32	–	> 128	> 256	4	4 to 8	8 to 16	4	32	> 128	8	4 to 8	> 64	4 to 8	significantly less active	–
